Measured values published in patent publication US20110144069A1, “COMPOUNDS FOR TREATING VIRAL INFECTIONS” (priority 2006, published 2011).

Assays:
mock-infected MT-4 cells = experiment: Compound toxicity in mock-infected cells (WST-1 assay); format: cell-based; conditions: toxicity measure, host cells; read-out: TC50 (concentration of compound that results in death of 50% of the host cells)
Experimental: (§1) The HTLV-1 transformed T cell line, MT-4, is highly susceptible to HIV-1 infection. Anti-HIV-1 agents were evaluated in this target cell line by protection from the HIV-induced cytopathic effect. In this assay, viability of both HIV-1 and mock-infected cells was assessed in a colorimetric assay that monitors the ability of metabolically-active cells to reduce the tetrazolium salt WST-1. Cytoprotection by antiviral compounds is indicated by the positive readout of increased WST-1 cleavage.
(§2) Briefly, exponentially growing MT-4 cells were mock-infected or batch-infected with the HIV-1 laboratory strain, NL4-3, at a multiplicity of infection of 0.0005. Following a two hour infection, the cells were washed to remove unbound virus and plated in the presence of increasing concentrations of compound. After four days incubation, cytoprotection in the infected cells and compound toxicity in mock-infected cells were analyzed using the WST-1 assay.

[1] = tested on: HIV-1 laboratory strain, NL4-3; experiment: MT-4 Cytoprotection Assay (protection from HIV-induced cytopathic effect, WST-1); format: cell-based; conditions: Human immunodeficiency virus 1, NL43; representative compounds; read-out: EC50 of less than about 100 nm
Experimental: MT-4 Cytoprotection Assay
as §1, §2

Structure (SMILES) | CC50 (mock-infected MT-4 cells) [µM] | EC50 [1] [µM]
C=C(C)[C@@H]1CC[C@]2(C(=O)NCc3ccc(C(=O)O)cc3)CC[C@]3(C)[C@H](CC[C@@H]4[C@@]5(C)CC[C@H](OC(=O)CC(C)(C)C(=O)O)C(C)(C)[C@@H]5CC[C@]43C)[C@@H]12 [Compound 71] | ~7.7 | 
C=C(C)[C@@H]1CC[C@]2(C(=O)NCc3ccccc3C(=O)O)CC[C@]3(C)[C@H](CC[C@@H]4[C@@]5(C)CC[C@H](OC(=O)CC(C)(C)C(=O)O)C(C)(C)[C@@H]5CC[C@]43C)[C@@H]12 [Compound 73] | ~6.3 | 
CC(C)[C@@H]1CC[C@]2(C(=O)NCCC3CCCCC3)CC[C@]3(C)[C@H](CC[C@@H]4[C@@]5(C)CC[C@H](OC(=O)CC(C)(C)C(=O)O)C(C)(C)[C@@H]5CC[C@]43C)[C@@H]12 [Compound 124] |  | < 0.1
